# From patent US11690824B2, “Antibacterial compounds” (THE GENERAL HOSPITAL CORPORATION, priority 2018, dated 2023)
# Legend:
# [1] = test system: K. pneumoniae WGLW2; test: MIC assay; assay type: cell-based, Klebsiella pneumoniae; conditions: Klebsiella pneumoniae; K. pneumoniae WGLW2; read-out: Minimum inhibitory concentration
# From the text: (§1) Bacterial strains, growth conditions, and persister isolation. Methicillin-resistant S. aureus strains, MW2 BAA-1707, ATCC 33591, and JE2, methicillin-susceptible S. aureus strains, NCTC 8325, Newman, and ATCC 29213, vancomycin-resistant S. aureus strain, VRS1, Enterococcus faecium E007, vancomycin-resistant E. faecium strains, C68,^7 WB312, and WC196, Klebsiella pneumoniae WGLW2 (BEI Resources, Manassas, Va., USA), Acinetobacter baumannii ATCC 17978, Pseudomonas aeruginosa PA14, and Enterobacter aerogenes ATCC 13048 were used to test antimicrobial activity (Table 1). S. aureus strains were grown in tryptic soy broth (TSB) (BD, Franklin Lakes, N.J., USA), and E. faecium was grown in brain-heart infusion (BHI) broth (BD, Franklin Lakes, N.J., USA) at 37° C. K. pneumoniae, A. baumannii, P. aeruginosa, and E. aerogenes were grown in Luria Bertani (LB) broth (BD, Franklin Lakes, N.J., USA) at 37° C.
# (§2) Minimal inhibitory concentration (MIC) assay. The MICS of antibiotics were determined by the standard micro-dilution method recommended by the Clinical and Laboratory Standards Institute. MIC assays were conducted in biological triplicate.
# [2] = test system: MRSA MW2; test: Serial passage resistance development; assay type: cell-based, S. aureus; conditions: 25 days, sub-MIC concentrations
# Experimental: Serial passage resistance development. […] Briefly, an extended range of concentrations of nTZDpa was generated by two-fold serial dilution with cation-adjusted Mueller Hinton (CaMH) broth (Difco, Detroit, USA) from three different starting concentrations (20, 24, and 32 μg/mL) covering 0.1875 to 32.0 μg/mL, which extended over three rows of the 96-well plate. Three sets of the extended gradient of nTZDpa were created in the 96-well plate to provide triplicates of the experiment. […] MRSA MW2 overnight cultures were adjusted to 1×10^6 CFU/mL in CaMH broth, and 50 μL of the diluted cultures were dispensed into the 96-well plates containing 50 μL of the extended gradient of antibiotics. After incubation for 24 h at 35° C., bacterial growth was determined by measuring optical density at 600 nm using a SpectraMax plate reader (Molecular Devices, Sunnyvale, Calif.), and growth was defined as an optical density reading of ≥0.1. Bacterial cells growing at the highest concentration of the antimicrobial (just below the MIC) were diluted 1:1000 in CaMH broth and then used to inoculate the next day's serial-passage plate. The remaining bacterial cells were stored at −80° C. in CaMH broth with 16% glycerol. This process was repeated for 25 days.
# [3] = test system: human erythrocytes; test: Human blood hemolysis; assay type: cell-based
# Experimental: Human blood hemolysis. Hemolytic activity was evaluated as described in a previous study. Briefly, 100 μL of 4% human erythrocytes (Rockland Immunochemicals, Limerick, Pa., USA) was added to 100 μL of 2-fold serial dilutions of compounds in PBS, 0.2% DMSO (negative control), or 2% Triton-X 100 (positive control) in a 96-well plate. The 96-well plate was incubated at 37° C. for 1 h and then centrifuged at 500× g for 5 min. 50 μL of the supernatant was transferred to a fresh 96-well plate, and absorbance of supernatants was measured at 540 nm. Percent hemolysis was calculated using the following equation: (A540 nm of compound treated sample−A540 nm of 0.1% DMSO treated sample)/(A540 nm of 1% Triton X-100 treated sample−A540 nm of 0.1% DMSO treated sample)×100. HC50 (concentration of a compound causing 50% hemolysis) was determined using SigmaPlot 10.0 (Systat Software Inc., San Jose, Calif., USA).
# [4] = test system: MRSA MW2; test: Deep-seated mouse thigh infection model; assay type: in vivo; conditions: 5 days
# Experimental: Deep-seated mouse thigh infection model. In vivo efficacy of nTZDpa alone or in combination with gentamicin against MRSA persisters was evaluated by a previously described neutropenic mouse thigh infection model with modifications. Six-week-old female CD-I mice (20-25 g, Charles River Laboratories, Wilmington, Mass., USA) were obtained from Charles River Laboratories (Wilmington, Mass., USA). The CD-I mice were rendered neutropenic by administering 150 mg/kg and 100 mg/kg of cyclophosphamide intraperitoneally (i.p.) at 4 days and 1 day before infection, respectively. On the day of infection, overnight culture of MRSA MVV2 was washed 3-time with sterile saline and diluted to 10^7 CFU/ml in the saline. 50 μl of the diluted culture (5×10^5 CFU per mouse) was injected to the right thigh of each mouse. nTZDpa was dissolved in Kolliphor EL (Sigma-Aldrich, St Louis, Mo., USA)/ethanol 1:1 and then diluted 1:10 in saline to a final concentration of 50 mg/kg. At 24 h post-infection, groups of mice (n=10) were treated with 30 mg/kg gentamicin subcutaneously (s.c.) every 12 h, 25 mg/kg vancomycin i.p. every 24 h, 50 mg/kg nTZPpa i.p. every 24 h, or the combination of 50 mg/kg nTZDpa i.p. every 24 h and 30 mg/kg gentamicin s.c. every 12 h for 5 days. Control mice were injected with 250 μl of 10% Kolliphor EL/ethanol in saline i.p. every 24 h for 5 days. Mice were euthanized at 96 h post-infection. Blood was collected by cardiac puncture, and the infected thighs were aseptically excised, weighed, and stored at 4° C. until homogenization. To evaluate hepatic and renal toxicities, the levels of alanine aminotransferase and blood urea nitrogen were analyzed with commercially available kits, following the manufacturer's protocol (Pointe Scientific, Canton, Mich., USA). Thighs were homogenized in PBS, serially diluted with PBS, and spot-plated on TSA plates. […] Statistical significance among each group was analyzed by one-way ANOVA with post-hoc Tukey test using PASW Statistics 18 (SPSS Inc. Chicago, Ill., USA).
# [5] = test system: vancomycin-resistant Enterococcus faecium strains; test: MIC against vancomycin-resistant strains; assay type: cell-based
# From the text: as §1, §2
# [6] = Hepatic and renal toxicities (serum ALT, BUN) in the mouse thigh infection model; conditions: 5 days
# Experimental: Deep-seated mouse thigh infection model. In vivo efficacy of nTZDpa alone or in combination with gentamicin against MRSA persisters was evaluated by a previously described neutropenic mouse thigh infection model with modifications. Six-week-old female CD-I mice (20-25 g, Charles River Laboratories, Wilmington, Mass., USA) were obtained from Charles River Laboratories (Wilmington, Mass., USA). The CD-I mice were rendered neutropenic by administering 150 mg/kg and 100 mg/kg of cyclophosphamide intraperitoneally (i.p.) at 4 days and 1 day before infection, respectively. On the day of infection, overnight culture of MRSA MVV2 was washed 3-time with sterile saline and diluted to 10^7 CFU/ml in the saline. 50 μl of the diluted culture (5×10^5 CFU per mouse) was injected to the right thigh of each mouse. nTZDpa was dissolved in Kolliphor EL (Sigma-Aldrich, St Louis, Mo., USA)/ethanol 1:1 and then diluted 1:10 in saline to a final concentration of 50 mg/kg. At 24 h post-infection, groups of mice (n=10) were treated with 30 mg/kg gentamicin subcutaneously (s.c.) every 12 h, 25 mg/kg vancomycin i.p. every 24 h, 50 mg/kg nTZPpa i.p. every 24 h, or the combination of 50 mg/kg nTZDpa i.p. every 24 h and 30 mg/kg gentamicin s.c. every 12 h for 5 days. Control mice were injected with 250 μl of 10% Kolliphor EL/ethanol in saline i.p. every 24 h for 5 days. Mice were euthanized at 96 h post-infection. Blood was collected by cardiac puncture, and the infected thighs were aseptically excised, weighed, and stored at 4° C. until homogenization. To evaluate hepatic and renal toxicities, the levels of alanine aminotransferase and blood urea nitrogen were analyzed with commercially available kits, following the manufacturer's protocol (Pointe Scientific, Canton, Mich., USA). Thighs were homogenized in PBS, serially diluted with PBS, and spot-plated on TSA plates. After incubating the TSA plates at 37° C. overnight, the number of colonies were enumerated to calculate CFU/g thigh tissue. This study and all experiments were performed in accordance with guidelines approved by the Rhode Island Hospital Institutional Animal Care and Use Committee (RIH IACUC). Statistical significance among each group was analyzed by one-way ANOVA with post-hoc Tukey test using PASW Statistics 18 (SPSS Inc. Chicago, Ill., USA).
# [7] = test system: MRSA MW2; test: Transmission electron microscopy; conditions: 4× MIC for 2 h
# [8] = nTZDpa 50 mg/kg with gentamicin 30 mg/kg
smiles,measurement,setting,value
O=C(O)c1c(Sc2ccccc2)c2cc(Cl)ccc2n1Cc1ccc(Cl)cc1 [nTZDpa],MIC,[1],> 64 µg/mL
same,increase of MIC over wild-type after serial passage,[2],no increase in the nTZDpa MIC was observed
same,hemolysis of human erythrocytes,[3]; 32 μg/ml,< 25%
same,toxicity to human erythrocytes,[3]; at or below 16 μg/mL,did not show significant toxicity
same,HC50: median hemolytic concentration,[3]; human erythrocytes,47 µg/mL
same,persister cells killed in thigh,"[4]; 50 mg/kg nTZDpa i.p. with 30 mg/kg gentamicin s.c., p<0.001",~95%
same,"MRSA CFUs / viability of persisters in thigh, single agent","[4]; vancomycin 25 mg/kg i.p., gentamicin 30 mg/kg s.c., nTZDpa 50 mg/kg i.p.",no effect on the viability of persisters
same,MIC,[5],4 µg/mL
same,BUN,[6]; [8],not increasing ALT or BUN
same,serum ALT,[6]; [8],not increasing ALT or BUN
same,BUN,[6]; nTZDpa alone 50 mg/kg i.p.,did not increase serum levels of ALT or BUN
same,serum ALT,[6]; nTZDpa alone 50 mg/kg i.p.,did not increase serum levels of ALT or BUN
same,cell morphology by TEM,[7],"formation of mesosome-like structures in most cells, abnormal cell division, and cell lysis"
